Columns and labels:
Type in all cases: in vivo
[1] = test system: Echinochloa crus-galli (ECHCG); experiment: A. Herbicidal pre-emergence efficacy, ECHCG; settings: scored visually after about 3 weeks vs untreated controls
Summary of the method: (§1)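 Pre-emergence soil-surface spray in sandy loam pots, WP/EC in water plus 0.5% additive, 600 L/ha. Visual % damage rating after about 3 weeks in greenhouse vs. untreated; 0% = control-like, 100% = dead plants. Rates up to 1280 g/ha.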

Kochia scoparia (KCHSC) = experiment: B. Herbicidal post-emergence efficacy, KCHSC; settings: for Post-emergence efficacy against KCHSC: 1280 g/ha; for Post-emergence efficacy against KCHSC in %: rated visually after about 3 weeks
Summary of the method: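 Weeds grown in sandy loam in greenhouse and sprayed at the one-leaf stage, 2–3 weeks after sowing, with WP or EC formulations plus 0.5% additive at 600 L/ha water. Injury rated visually versus untreated controls after about 3 weeks (100% = dead, 0% = like control); rates up to 1280 g/ha.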

[2] = test system: Amaranthus retroflexus (AMARE); experiment: E. Herbicidal post-emergence efficacy, AMARE
Description: Seeds of monocotyledonous and dicotyledonous weeds and crop plants were placed in sandy loam in plastic or organic planting pots, covered with soil and cultivated in a greenhouse under controlled growth conditions. 2 to 3 weeks after sowing, the test plants were treated at the one-leaf stage. The compounds of the invention, formulated in the form of wettable powders (WP) or as emulsion concentrates (EC), were then sprayed onto the green parts of the plants as aqueous suspension or emulsion with addition of 0.5% additive at a water application rate of 600 l/ha (converted). After the test plants had been kept in the greenhouse under optimum growth conditions for about 3 weeks, the activity of the preparations was rated visually in comparison to untreated controls.
For example, • 100% efficacy=plants have died, • 0% action=like untreated control plants.
Tables E1a to E12b below show the effects of selected compounds of the general formula (I) according to table 1 on various harmful plants at an application rate corresponding to 320 g/ha or less, which were obtained by the experimental procedure mentioned above.

Setaria viridis (SETVI) = experiment: B. Herbicidal post-emergence efficacy, SETVI
Description: Seeds of mono- and dicotyledonous weed plants were placed in plastic pots in sandy loam soil (doubly sown with in each case one species of mono- or dicotyledonous weed plants per pot), covered with soil and cultivated in a greenhouse under controlled growth conditions. 2 to 3 weeks after sowing, the test plants were treated at the one-leaf stage. The compounds of the invention, formulated in the form of wettable powders (WP) or as emulsion concentrates (EC), were applied onto the green parts of the plants as aqueous suspension or emulsion with addition of 0.5% additive at a water application rate of 600 liters per hectare (converted). After the test plants had been kept in the greenhouse under optimum growth conditions for about 3 weeks, the activity of the preparations was rated visually in comparison to untreated controls.
For example, • 100% efficacy=plants have died, • 0% efficacy=like untreated control plants
Tables B1a to B12c below show the effects of selected inventive compounds of the general formula (I) according to table 1 on various harmful plants at an application rate corresponding to 1280 g/ha or less, which were obtained by the experimental procedure mentioned above.

Stellaria media (STEME) = experiment: A. Herbicidal pre-emergence efficacy, STEME
Summary of the method: as §1

[3] = test system: Polygonum convolvulus (POLCO); experiment: C. Herbicidal pre-emergence efficacy, POLCO; settings: scored after about 3 weeks
Description: (§2) Seeds of monocotyledonous and dicotyledonous weed plants and crop plants were placed in plastic or organic planting pots and covered with soil. The compounds of the invention, formulated in the form of wettable powders (WP) or as emulsion concentrates (EC), were then applied to the surface of the covering soil as aqueous suspension or emulsion with addition of 0.5% additive at a water application rate equivalent to 600 l/ha (converted). After the treatment, the pots were placed in a greenhouse and kept under good growth conditions for the test plants. After about 3 weeks, the efficacy of the preparations was scored visually in comparison with untreated controls as percentages. For example, • 100% efficacy=plants have died, • 0% efficacy=like untreated control plants.
(§3) Tables C1a to C14b below show the effects of selected compounds of the general formula (I) according to table 1 on various harmful plants at an application rate corresponding to 320 g/ha or less, which were obtained by the experimental procedure mentioned above.

[4] = test system: Abutilon theophrasti (ABUTH); experiment: C. Herbicidal pre-emergence efficacy, ABUTH; settings: scored after about 3 weeks
Description: as §2, §3

O=S(=O)(CCl)Oc1ccccc1Oc1ncc(Cl)cn1 [Example I-9]
Pre-emergence efficacy against ECHCG ([1]; 1280 g/ha): 100%
Post-emergence efficacy against KCHSC (Kochia scoparia (KCHSC)): 90%
Post-emergence efficacy against AMARE in % ([2]; application rate 80 g/ha): 100%
Post-emergence efficacy against AMARE in % ([2]; application rate 320 g/ha): 100%
Post-emergence efficacy against SETVI (Setaria viridis (SETVI); 1280 g/ha): 90%
Pre-emergence efficacy against STEME (Stellaria media (STEME); dosage 320 g/ha): 100%
Pre-emergence efficacy against STEME (Stellaria media (STEME); dosage 1280 g/ha): 100%
Pre-emergence efficacy against POLCO ([3]; 320 g/ha): 90%

Cc1cccc(OS(=O)(=O)CCCCl)c1Oc1ncc(Cl)cn1 [Example I-12]
Pre-emergence efficacy against ECHCG ([1]; 320 g/ha): 90%
Pre-emergence efficacy against ECHCG ([1]; 1280 g/ha): 100%
Post-emergence efficacy against KCHSC (Kochia scoparia (KCHSC)): 90%
Post-emergence efficacy against AMARE in % ([2]; application rate 80 g/ha): 90%
Post-emergence efficacy against AMARE in % ([2]; application rate 320 g/ha): 90%
Post-emergence efficacy against SETVI (Setaria viridis (SETVI); 1280 g/ha): 90%
Pre-emergence efficacy against ABUTH ([4]; 80 g/ha): 80%
Pre-emergence efficacy against ABUTH ([4]; 320 g/ha): 90%
Pre-emergence efficacy against STEME (Stellaria media (STEME); dosage 320 g/ha): 100%
Pre-emergence efficacy against STEME (Stellaria media (STEME); dosage 1280 g/ha): 100%

O=S(=O)(CCCCl)Oc1cccc(F)c1Oc1ncc(Cl)cn1 [Example I-13]
Pre-emergence efficacy against ECHCG ([1]; 1280 g/ha): 100%
Post-emergence efficacy against KCHSC in % (Kochia scoparia (KCHSC); 320 g/ha): 90%
Post-emergence efficacy against KCHSC (Kochia scoparia (KCHSC)): 100%
Post-emergence efficacy against AMARE in % ([2]; application rate 320 g/ha): 80%
Pre-emergence efficacy against ABUTH ([4]; 320 g/ha): 90%
Pre-emergence efficacy against STEME (Stellaria media (STEME); dosage 80 g/ha): 100%
Pre-emergence efficacy against STEME (Stellaria media (STEME); dosage 320 g/ha): 100%
Pre-emergence efficacy against STEME (Stellaria media (STEME); dosage 1280 g/ha): 100%

CCS(=O)(=O)Oc1ccccc1Oc1ncc(Cl)cn1 [Example I-16]
Pre-emergence efficacy against ECHCG ([1]; 320 g/ha): 90%
Pre-emergence efficacy against ECHCG ([1]; 1280 g/ha): 100%
Post-emergence efficacy against KCHSC in % (Kochia scoparia (KCHSC); 80 g/ha): 90%
Post-emergence efficacy against KCHSC in % (Kochia scoparia (KCHSC); 320 g/ha): 100%
Post-emergence efficacy against KCHSC (Kochia scoparia (KCHSC)): 100%
Post-emergence efficacy against SETVI (Setaria viridis (SETVI); 1280 g/ha): 90%
Pre-emergence efficacy against STEME (Stellaria media (STEME); dosage 320 g/ha): 100%
Pre-emergence efficacy against STEME (Stellaria media (STEME); dosage 1280 g/ha): 100%

CCCCCS(=O)(=O)Oc1ccccc1Oc1ncc(Cl)cn1 [Example I-24]
Pre-emergence efficacy against ECHCG ([1]; 320 g/ha): 100%
Pre-emergence efficacy against ECHCG ([1]; 1280 g/ha): 100%
Post-emergence efficacy against KCHSC in % (Kochia scoparia (KCHSC); 80 g/ha): 90%
Post-emergence efficacy against KCHSC in % (Kochia scoparia (KCHSC); 320 g/ha): 100%
Post-emergence efficacy against KCHSC (Kochia scoparia (KCHSC)): 100%
Post-emergence efficacy against AMARE in % ([2]; application rate 80 g/ha): 90%
Post-emergence efficacy against AMARE in % ([2]; application rate 320 g/ha): 100%
Post-emergence efficacy against SETVI (Setaria viridis (SETVI); 1280 g/ha): 90%
Pre-emergence efficacy against STEME (Stellaria media (STEME); dosage 320 g/ha): 100%
Pre-emergence efficacy against STEME (Stellaria media (STEME); dosage 1280 g/ha): 100%
Pre-emergence efficacy against POLCO ([3]; 320 g/ha): 80%

O=S(=O)(CCCC(F)(F)F)Oc1c(Br)cccc1Oc1ncc(Cl)cn1 [Example I-30]
Pre-emergence efficacy against ECHCG ([1]; 320 g/ha): 100%
Pre-emergence efficacy against ECHCG ([1]; 1280 g/ha): 100%
Post-emergence efficacy against KCHSC in % (Kochia scoparia (KCHSC); 80 g/ha): 100%
Post-emergence efficacy against KCHSC in % (Kochia scoparia (KCHSC); 320 g/ha): 100%
Post-emergence efficacy against KCHSC (Kochia scoparia (KCHSC)): 100%
Pre-emergence efficacy against STEME (Stellaria media (STEME); dosage 80 g/ha): 100%
Pre-emergence efficacy against STEME (Stellaria media (STEME); dosage 320 g/ha): 100%
Pre-emergence efficacy against STEME (Stellaria media (STEME); dosage 1280 g/ha): 100%

O=S(=O)(CCCC(F)(F)F)Oc1c(Cl)cccc1Oc1ncc(Br)cn1 [Example I-34]
Post-emergence efficacy against KCHSC in % (Kochia scoparia (KCHSC); 80 g/ha): 100%
Post-emergence efficacy against KCHSC in % (Kochia scoparia (KCHSC); 320 g/ha): 100%
Post-emergence efficacy against KCHSC (Kochia scoparia (KCHSC)): 100%
Post-emergence efficacy against AMARE in % ([2]; application rate 80 g/ha): 100%
Post-emergence efficacy against AMARE in % ([2]; application rate 320 g/ha): 100%
Post-emergence efficacy against SETVI (Setaria viridis (SETVI); 1280 g/ha): 90%
Pre-emergence efficacy against ABUTH ([4]; 80 g/ha): 80%
Pre-emergence efficacy against ABUTH ([4]; 320 g/ha): 90%
Pre-emergence efficacy against STEME (Stellaria media (STEME); dosage 320 g/ha): 90%
Pre-emergence efficacy against STEME (Stellaria media (STEME); dosage 1280 g/ha): 90%
Pre-emergence efficacy against POLCO ([3]; 320 g/ha): 100%

C=CCS(=O)(=O)Oc1ccccc1Oc1ncc(Cl)cn1 [Example I-36]
Pre-emergence efficacy against ECHCG ([1]; 1280 g/ha): 100%
Post-emergence efficacy against KCHSC (Kochia scoparia (KCHSC)): 90%
Post-emergence efficacy against SETVI (Setaria viridis (SETVI); 1280 g/ha): 90%
Pre-emergence efficacy against ABUTH ([4]; 320 g/ha): 90%
Pre-emergence efficacy against STEME (Stellaria media (STEME); dosage 1280 g/ha): 90%
Pre-emergence efficacy against POLCO ([3]; 320 g/ha): 90%

O=S(=O)(CCC1CC1)Oc1c(F)cccc1Oc1ncc(Cl)cn1 [Example I-55]
Pre-emergence efficacy against ECHCG ([1]; 320 g/ha): 100%
Pre-emergence efficacy against ECHCG ([1]; 1280 g/ha): 100%
Post-emergence efficacy against KCHSC in % (Kochia scoparia (KCHSC); 320 g/ha): 90%
Post-emergence efficacy against KCHSC (Kochia scoparia (KCHSC)): 90%
Post-emergence efficacy against AMARE in % ([2]; application rate 80 g/ha): 90%
Post-emergence efficacy against AMARE in % ([2]; application rate 320 g/ha): 100%
Post-emergence efficacy against SETVI (Setaria viridis (SETVI); 320 g/ha): 90%
Post-emergence efficacy against SETVI (Setaria viridis (SETVI); 1280 g/ha): 90%
Pre-emergence efficacy against STEME (Stellaria media (STEME); dosage 320 g/ha): 100%
Pre-emergence efficacy against STEME (Stellaria media (STEME); dosage 1280 g/ha): 100%
Pre-emergence efficacy against POLCO ([3]; 80 g/ha): 90%
Pre-emergence efficacy against POLCO ([3]; 320 g/ha): 90%

O=S(=O)(CCC(F)=C(F)F)Oc1c(F)cccc1Oc1ncc(Cl)cn1 [Example I-70]
Post-emergence efficacy against AMARE in % ([2]; application rate 80 g/ha): 100%
Post-emergence efficacy against AMARE in % ([2]; application rate 320 g/ha): 100%
Pre-emergence efficacy against ABUTH ([4]; 80 g/ha): 80%
Pre-emergence efficacy against ABUTH ([4]; 320 g/ha): 100%
Pre-emergence efficacy against POLCO ([3]; 80 g/ha): 100%
Pre-emergence efficacy against POLCO ([3]; 320 g/ha): 100%

N#Cc1cccc(Oc2ncc(Cl)cn2)c1OS(=O)(=O)CCCC(F)(F)F [Example I-81]
Post-emergence efficacy against AMARE in % ([2]; application rate 80 g/ha): 100%
Post-emergence efficacy against AMARE in % ([2]; application rate 320 g/ha): 100%
Pre-emergence efficacy against ABUTH ([4]; 320 g/ha): 100%
Pre-emergence efficacy against POLCO ([3]; 80 g/ha): 80%
Pre-emergence efficacy against POLCO ([3]; 320 g/ha): 90%

Reference: patent US20240174618A1, “SUBSTITUTED (2-HETEROARYLOXYPHENYL)SULFONATES, SALTS THEREOF AND THEIR USE AS HERBICIDAL AGENTS” (Bayer Aktiengesellschaft, priority 2021, published 2024)
